# Measured values reported in publication PMC7377239, “Cardiovascular Effects of Polychlorinated Biphenyls and Their Major Metabolites” (Environmental Health Perspectives, 2020).
# Where a name gives a salt, the structure may show the parent alone. Read-outs that look alike come from different tables or passages of the source.
# Tests used:
# [1] = tested on: iCell endothelial cells (human iPSC-derived ECs); assay: High-content imaging cytotoxicity in iCell endothelial cells, 24 h; type: cell-based; details: Homo sapiens, Endothelial cell, 24 hr; for viability at 0.1 µM / activity at 0.1 µM: 0.10 µM
# Procedure, shortened: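 Readouts were vehicle-normalised and fitted to a four-parameter logistic model. POD was set at one SD beyond 0.5% DMSO control means, and 100 µM was assigned when no response was seen. Cells were monolayers of iCell endothelial cells imaged after 24 h compound exposure using nuclear, mitochondrial and calcein dyes.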
# HUVECs = assay: Tube formation (tubulogenesis) assay in HUVECs, 18 h; type: cell-based, human; details: Homo sapiens, HUVEC, 18 h, HUVEC; for activity at 0.1 µM: 0.10 µM
# Procedure, shortened: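 HUVECs (passage 1–5) seeded on reduced-growth-factor basement membrane and exposed to compounds overnight at 37°C, 5% CO2, in 2× maintenance medium with 12.5 ng/mL VEGF; 0.5% DMSO vehicle. Calcein AM-stained tube networks imaged and analysed; vehicle-normalized readouts fit to four-parameter logistic, POD set at one SD of vehicle means.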
# [2] = endothelial cells (endo), cyto, read-out: POD endo.cyto.24hr
# [3] = endothelial cells (endo), mito, read-out: POD endo.mito.24hr
# [4] = endothelial cells (endo), mitoint, read-out: POD endo.mitoint.24hr
# [5] = endothelial cells (endo), nma, read-out: POD endo.nma.24hr
# [6] = endothelial cells (endo), tc, read-out: POD endo.tc.24hr
# [7] = iPSC-EC, 0.00 µM control = 100.00, read-out: endo.cyto.24hr
# [8] = iPSC-EC, 0.00 µM control = 100.00, read-out: endo.mito.24hr
# [9] = iPSC-EC, 0.00 µM control = 100.00, read-out: endo.mitoint.24hr
# [10] = iPSC-EC, 0.00 µM control = 100.00, read-out: endo.nma.24hr
# [11] = iPSC-EC, 0.00 µM control = 100.00, read-out: endo.tc.24hrs
# [12] = tube formation mtl, read-out: POD huvec.mtl.18hr
# [13] = tube formation tlps, read-out: POD huvec.tlps.18hr
# [14] = tube formation tta, read-out: POD huvec.tta.18hr
# [15] = tube formation ttl, read-out: POD huvec.ttl.18hr
# [16] = HUVECs, 0.00 µM = 100.00, read-out: huvec.mtl.18hr
# [17] = HUVECs, 0.00 µM = 100.00, read-out: huvec.tlps.18hr
# [18] = HUVECs, 0.00 µM = 100.00, read-out: huvec.tta.18hr
# [19] = HUVECs, 0.00 µM = 100.00, read-out: huvec.ttl.18hr
compound,measurement,setting,value
"O=C1C=CC(=O)C(c2ccc(Cl)cc2)=C1 [4-Cl-BQ, 2-(4-Chlorophenyl)benzo-2,5-quinone]",minimal effective concentration,[1]; [2],3.82 µM
same,minimal effective concentration,[1]; [3],3.82 µM
same,minimal effective concentration,[1]; [4],14.2 µM
same,minimal effective concentration,[1]; [5],13 µM
same,minimal effective concentration,[1]; [6],2.56 µM
same,viability at 0.01 µM,[1]; [7],90%
same,activity at 0.01 µM,[1]; [8],90.5%
same,activity at 0.01 µM,[1]; [9],114%
same,activity at 0.01 µM,[1]; [10],105%
same,viability at 0.01 µM,[1]; [11],90%
same,viability at 0.1 µM,[1]; [7],89.7%
same,activity at 0.1 µM,[1]; [8],89.9%
same,activity at 0.1 µM,[1]; [9],103%
same,activity at 0.1 µM,[1]; [10],104%
same,viability at 0.1 µM,[1]; [11],89.7%
same,viability at 1 µM,[1]; [7],93.1%
same,activity at 1 µM,[1]; [8],93.1%
same,activity at 1 µM,[1]; [9],99.3%
same,activity at 1 µM,[1]; [10],103%
same,viability at 1 µM,[1]; [11],93.1%
same,viability at 10 µM,[1]; [7],87.8%
same,activity at 10 µM,[1]; [8],87.7%
same,activity at 10 µM,[1]; [9],95.2%
same,activity at 10 µM,[1]; [10],102%
same,viability at 10 µM,[1]; [11],87.8%
same,viability at 100 µM,[1]; [7],12.1%
same,activity at 100 µM,[1]; [8],3.06%
same,activity at 100 µM,[1]; [9],30.1%
same,activity at 100 µM,[1]; [10],161%
same,viability at 100 µM,[1]; [11],31.3%
same,minimal effective concentration,"[1]; iPSC-EC, top concentration 100.00 µM, read-out: endo.cyto.24hr POD",3.82 µM
same,minimal effective concentration,"[1]; iPSC-EC, top concentration 100.00 µM, read-out: endo.mito.24hr POD",3.82 µM
same,minimal effective concentration,"[1]; iPSC-EC, top concentration 100.00 µM, read-out: endo.mitoint.24hr POD",14.2 µM
same,minimal effective concentration,"[1]; iPSC-EC, top concentration 100.00 µM, read-out: endo.nma.24hr POD",13 µM
same,minimal effective concentration,"[1]; iPSC-EC, top concentration 100.00 µM, read-out: endo.tc.24hrs POD",2.56 µM
same,minimal effective concentration,HUVECs; [12],1.18 µM
same,minimal effective concentration,HUVECs; [13],5.25 µM
same,minimal effective concentration,HUVECs; [14],0.65 µM
same,minimal effective concentration,HUVECs; [15],0.25 µM
same,activity at 0.01 µM,HUVECs; [16],108%
same,activity at 0.01 µM,HUVECs; [17],136%
same,activity at 0.01 µM,HUVECs; [18],110%
same,activity at 0.01 µM,HUVECs; [19],98.6%
same,activity at 0.1 µM,HUVECs; [16],104%
same,activity at 0.1 µM,HUVECs; [17],134%
same,activity at 0.1 µM,HUVECs; [18],99.2%
same,activity at 0.1 µM,HUVECs; [19],97.1%
same,activity at 1 µM,HUVECs; [16],92.4%
same,activity at 1 µM,HUVECs; [17],139%
same,activity at 1 µM,HUVECs; [18],71%
same,activity at 1 µM,HUVECs; [19],68.3%
same,activity at 10 µM,HUVECs; [16],57.7%
same,activity at 10 µM,HUVECs; [17],26.2%
same,activity at 10 µM,HUVECs; [18],36.4%
same,activity at 10 µM,HUVECs; [19],40%
same,activity at 100 µM,HUVECs; [16],55.2%
same,activity at 100 µM,HUVECs; [17],14.3%
same,activity at 100 µM,HUVECs; [18],8.95%
same,activity at 100 µM,HUVECs; [19],11.6%
same,minimal effective concentration,"HUVECs; HUVECs, top concentration 100.00 µM, read-out: huvec.mtl.18hr POD",1.18 µM
same,minimal effective concentration,"HUVECs; HUVECs, top concentration 100.00 µM, read-out: huvec.tlps.18hr POD",5.25 µM
same,minimal effective concentration,"HUVECs; HUVECs, top concentration 100.00 µM, read-out: huvec.tta.18hr POD",0.65 µM
same,minimal effective concentration,"HUVECs; HUVECs, top concentration 100.00 µM, read-out: huvec.ttl.18hr POD",0.25 µM
Oc1cc(Cl)cc(-c2cccc(Cl)c2)c1 [5-OH-PCB 11],minimal effective concentration,[1]; [2],42.3 µM
same,minimal effective concentration,[1]; [3],42.3 µM
same,minimal effective concentration,[1]; [4],55 µM
same,minimal effective concentration,[1]; [5],14.2 µM
same,minimal effective concentration,[1]; [6],43.2 µM
same,minimal effective concentration,HUVECs; [12],6.98 µM
same,minimal effective concentration,HUVECs; [13],100 µM
same,minimal effective concentration,HUVECs; [14],100 µM
same,minimal effective concentration,HUVECs; [15],32.7 µM
Oc1cc(Cl)c(-c2cc(Cl)ccc2Cl)cc1Cl [4-OH-PCB 52],minimal effective concentration,[1]; [2],13.2 µM
same,minimal effective concentration,[1]; [3],13.2 µM
same,minimal effective concentration,[1]; [4],43.8 µM
same,minimal effective concentration,[1]; [5],63.5 µM
same,minimal effective concentration,[1]; [6],16.6 µM
same,minimal effective concentration,HUVECs; [12],8.34 µM
same,minimal effective concentration,HUVECs; [13],4.13 µM
same,minimal effective concentration,HUVECs; [14],51.8 µM
same,minimal effective concentration,HUVECs; [15],62.1 µM
O=S(=O)(O)Oc1ccc(-c2ccc(Cl)cc2)cc1 [4'-PCB 3 sulfate],minimal effective concentration,[1]; [2],100 µM
same,minimal effective concentration,[1]; [3],100 µM
same,minimal effective concentration,[1]; [4],100 µM
same,minimal effective concentration,[1]; [5],100 µM
same,minimal effective concentration,[1]; [6],100 µM
same,minimal effective concentration,HUVECs; [12],11.2 µM
same,minimal effective concentration,HUVECs; [13],100 µM
same,minimal effective concentration,HUVECs; [14],25.4 µM
same,minimal effective concentration,HUVECs; [15],100 µM
